Results published in patent US9394555B2, “Compositions comprising a polypeptide having cellulolytic enhancing activity and a dioxy compound and uses thereof” (priority 2010, dated 2016).

Experiments:
[1] = test system: T. aurantiacus CEL5A endoglucanase II and P. brasilianum CEL3A beta-glucosidase; experiment: Microcrystalline cellulose conversion assay I (Examples 8, 9) without GH61 polypeptide; assay type: biochemical, Thermoascus aurantiacus; Penicillium brasilianum; conditions: dioxy compound 0.3% w/w + endoglucanase II + beta-glucosidase (5 mg/g each), no GH61; 96 hours, at either 50° C. or 60° C.
Description: A 5% microcrystalline cellulose slurry was prepared by addition of 2.5 g of AVICEL®PH101 (Sigma-Aldrich, St. Louis, Mo., USA) to a graduated 50 ml screw-cap conical tube followed by 15 ml of 1 M sodium acetate pH 5 and 1 ml of 100 mM MnSO4 and approximately 20 ml of deionizer water. Each conical tube was then mixed thoroughly by shaking/vortexing, and adjusted to 50 ml total with deionized water and mixed again. Contents of the tube were then quickly transferred to a 100 ml beaker and stirred rapidly with a magnetic stirrer. Five hundred μl aliquots of the 5% AVICEL® slurry were pipetted into wells of a 2.0 ml 96-deepwell plate (Axygen, Union City, Calif., USA) using a 1000 μl micropipette with a wide aperture tip (end of tip cut off about 2 mm from the base). Three hundred μl of either deionized water or a 1% dioxy compound solution (dissolved in deionized water) was added to each well.
The dioxy compounds assayed include caffeic acid (Sigma-Aldrich, St. Louis, Mo., USA), dichlorophenolindophenol (DCPIP; Sigma-Aldrich, St. Louis, Mo., USA), ethyl gallate (Sigma-Aldrich, St. Louis, Mo., USA), gallic acid (Sigma-Aldrich, St. Louis, Mo., USA), 3,4-dihydroxybenzoic acid (Sigma-Aldrich, St. Louis, Mo., USA), pyrocatechol (Sigma-Aldrich, St. Louis, Mo., USA), pyrogallol (Sigma-Aldrich, St. Louis, Mo., USA), sinapinic acid (3,5 dimethoxy-4-hydroxy cinnamic acid; Apin Chemicals LTD, Abingdon, UK), and tannic acid (Sigma-Aldrich, St. Louis, Mo., USA).
Enzyme mixtures were prepared and then added simultaneously to all wells in a volume of 200 μl, for a total of 1 ml in each reaction. […] All experiments reported were performed in triplicate.
After approximately 4 days, the deep-well plate was removed from the incubator and chilled overnight to 4° C. The plate was then mixed well by inversion and briefly centrifuged at 52×g in a SORVALL® RT7 centrifuge (Thermo Fisher Scientific, Waltham, Mass., USA) for 10 seconds. Samples were then mixed by pipetting, and 200 μl from each well were transferred to a MULTISCREEN® HV centrifuge filter plate assembly (Millipore, Bedford, Mass., USA). The centrifuge filter plate assembly was centrifuged at 2000 rpm in a SORVALL® RT7 centrifuge for 20 minutes. […] Sugars were detected using a refractive index detector (Agilent Technologies, Inc., Santa Clara, Calif., USA) with quantification by integration compared to purified sugar standards.
In this assay only glucose was measured since beta-glucosidase was at high levels in all samples but the controls.
A limit digest was performed to determine the total concentration accessible glucose equivalents using 100 mg of T. reesei cellulase (CELLIC™ CTec, Novozymes A/S, Bagsvaerd, Denmark) per gram cellulose, Triplicate data points were averaged and standard deviation was calculated.

[2] = biological target: T. aurantiacus GH61A polypeptide (Thermoascus aurantiacus, UniProt G3XAP7, N13Y); experiment: Microcrystalline cellulose conversion assay III (Examples 12, 13), T. reesei Cel7B endoglucanase I + A. oryzae CEL3A beta-glucosidase, with and without EDTA; assay type: biochemical; conditions: 72 hours, 50° C.
Description: A 5% microcrystalline cellulose slurry was prepared by addition of 2.5 g of AVICEL® PH101 to a graduated 50 ml screw-cap conical tube followed by approximately 40 ml of deionized water. Each conical tube was then mixed thoroughly by shaking/vortexing, and adjusted to 50 ml total with deionized water and mixed again. Contents of the tube were then quickly transferred to a 100 ml beaker and stirred rapidly with a magnetic stirrer. Five hundred μl aliquots of the 5% AVICEL® slurry were pipetted into wells of a 2.0 ml 96-deepwell plate (Axygen, Union City, Calif., USA) using a 1000 μl micropipette with a wide aperture tip (end of tip cut off about 2 mm from the base). Two hundred μl of deionized water and 100 μl of 10 mM MnSO4-500 mM sodium acetate pH 5 were then added to each well. One hundred μl of either deionized water, a 1% gallic acid solution dissolved in water, or a 1% gallic acid solution containing 50 mM EDTA was added to each well. Enzyme mixtures were prepared and then added simultaneously to all wells in a volume of 100 μl, for a total of 1 ml in each reaction. […] All experiments reported were performed in triplicate.
Primary analysis of the hydrolysis reactions was performed using an AGILENT® 1100 HPLC with CHEMSTATION® software equipped with an AMINEX™ HPX-87H column. After approximately 4 days, the deep-well plate was removed from the incubator and chilled overnight to 4° C. The plate was then mixed well by inversion and briefly centrifuged 52×g in a SORVALL® RT7 centrifuge for 10 seconds. Samples were then mixed by pipetting, and 200 μl from each well were transferred to a MULTISCREEN® HV centrifuge filter plate assembly. The centrifuge filter plate assembly was centrifuged at 2000 rpm in a SORVALL® RT7 centrifuge for 20 minutes. […] Sugars were detected using a refractive index detector with quantification by integration compared to purified sugar standards.
All HPLC data processing was performed using MICROSOFT EXCEL™ software. […] In this assay only glucose was measured since beta-glucosidase was at high levels in all samples but the controls. The degree of cellulose conversion was calculated using Equation 1. Triplicate data points were averaged and standard deviation was calculated.
The microcrystalline cellulose hydrolysis assay was performed as described in Example 12.
Data were collected and analyzed, as described in Example 12, after 72 hours of incubation at 50° C.

[3] = biological target: T1, Aspergillus oryzae CEL3A beta-glucosidase (Aspergillus oryzae, UniProt Q2UUD6); experiment: Variable pH PASC conversion assay (Examples 29, 30) without GH61 polypeptide; assay type: biochemical; conditions: gallic acid 0.2% w/w + Aspergillus oryzae CEL3A beta-glucosidase (10 mg/g), no GH61, 72 hours, 50° C.
T1 construct: made in house
T1 sequence (Q2UUD6 20-861): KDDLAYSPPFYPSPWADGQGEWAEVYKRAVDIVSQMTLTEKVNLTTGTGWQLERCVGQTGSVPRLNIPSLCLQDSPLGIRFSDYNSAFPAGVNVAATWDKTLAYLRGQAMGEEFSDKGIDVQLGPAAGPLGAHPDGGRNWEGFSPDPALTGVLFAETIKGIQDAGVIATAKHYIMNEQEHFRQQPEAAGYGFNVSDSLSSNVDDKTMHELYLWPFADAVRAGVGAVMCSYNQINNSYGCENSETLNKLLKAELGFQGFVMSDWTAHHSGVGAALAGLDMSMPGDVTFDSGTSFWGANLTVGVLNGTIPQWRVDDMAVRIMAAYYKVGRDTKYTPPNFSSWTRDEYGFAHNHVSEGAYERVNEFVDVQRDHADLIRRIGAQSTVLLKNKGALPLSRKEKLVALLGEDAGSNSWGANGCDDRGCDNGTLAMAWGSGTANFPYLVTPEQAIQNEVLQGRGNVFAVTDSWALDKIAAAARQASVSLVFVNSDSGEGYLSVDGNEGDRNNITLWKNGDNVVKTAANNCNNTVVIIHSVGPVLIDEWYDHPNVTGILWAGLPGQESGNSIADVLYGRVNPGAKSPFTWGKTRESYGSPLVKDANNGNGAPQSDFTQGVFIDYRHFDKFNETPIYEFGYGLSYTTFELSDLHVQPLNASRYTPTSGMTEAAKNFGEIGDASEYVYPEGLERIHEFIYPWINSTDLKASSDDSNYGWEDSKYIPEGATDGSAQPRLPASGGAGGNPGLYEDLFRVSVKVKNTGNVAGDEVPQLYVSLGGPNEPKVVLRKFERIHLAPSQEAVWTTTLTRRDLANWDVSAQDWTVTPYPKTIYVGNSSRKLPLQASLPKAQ

Molecule: O=C(O)c1cc(O)c(O)c(O)c1 [gallic acid]
- change in conversion of microcrystalline cellulose compared to the enzymes in the absence of the dioxy compound [1]: no significant change
- conversion of the microcrystalline cellulose ([2]; gallic acid 0.1% w/w + 5 mM EDTA + T. aurantiacus GH61A polypeptide (5 mg/g), no other enzymes): no significant conversion
- conversion of the microcrystalline cellulose ([2]; gallic acid 0.1% w/w + 5 mM EDTA, no enzymes): no significant conversion
- conversion of the microcrystalline cellulose ([2]; gallic acid 0.1% w/w alone, no enzymes): no significant conversion
- conversion of phosphoric acid swollen cellulose ([3]; pH 4): 1.6±0.2%
- conversion of phosphoric acid swollen cellulose ([3]; pH 5): 2.0±0.7%
- conversion of phosphoric acid swollen cellulose ([3]; pH 6): 1.2±0.5%
- conversion of phosphoric acid swollen cellulose ([3]; pH 7.5): 1.9±1.2%

B1: T. aurantiacus GH61A polypeptide: GH61A polypeptide having cellulolytic enhancing activity (SEQ ID NO: 14), recombinantly produced in Aspergillus oryzae JaL250 (protein, listed as Thermoascus aurantiacus)
chain: MSFSKIIATAGVLASASLVAGHGFVQNIVIDGKYYGGYLVNQYPYMSNPPEVIAWSTTATDLGFVDGTGYQTPDIICHRGAKPGALTAPVSPGGTVELQWTPWPDSHHGPVINYLAPCNGDCSTVDKTQLEFFKIAESGLINDDNPPGIWASDNLIAANNSWTVTIPTTIAPGNYVLRHEIIALHSAQNQDGAQNYPQCINLQVTGGGSDNPAGTLGTALYHDTDPGILINIYQKLSSYIIPGPPLYTG
- conversion of the microcrystalline cellulose ([2]; T. aurantiacus GH61A polypeptide (5 mg/g) + endoglucanase I + beta-glucosidase (5 mg/g each), no gallic acid): 4.0±0.2%
- conversion of microcrystalline cellulose ([2]; T. aurantiacus GH61A polypeptide (5 mg/g) alone): no significant conversion
